Source: publication PMC7914367, “Dual-ligand supramolecular nanofibers inspired by the renin-angiotensin system for the targeting and synergistic therapy of myocardial infarction” (Theranostics, 2021)
Square brackets hold non-standard residues; d marks the D form. Peptide text beside a SMILES is read from it. * marks the point of attachment. X1 = CN1/C(=C/C=C/C=C/C2=[N+](CCCCCC(=O)*)c3ccc4ccccc4c3C2(C)C)C(C)(C)c2c1ccc1ccccc21; NBD = O=[N+]([O-])c1ccc(*)c2nonc12; βAla = NCCC(=O)O

Legend:
infarcted heart = system: infarcted heart; parameters: species or system C57BL/6 mice; details: mouse, in vivo
Description: ^Cy5.5TDCNfs, ^Cy5.5SAA1-7, and ^Cy5.5Ang1-7 were injected intravenously into the mice via tail vein at a dose of 0.2 mg. The images were captured at the prefixed time. Next, the mice were sacrificed to harvest their hearts and major organs. The samples were imaged at an excitation wavelength of 630 nm and an emission wavelength of 700 nm using an in vivo imaging system (FX PRO, BRUKER, Germany). The images were analyzed using the BRUKER Molecular Imaging Software. The targeting ability of compounds was defined by HTI = heart fluorescence emission/liver fluorescence emission.
Frozen sections were prepared in vivo, as described previously. For drugs distribution, near-infrared laser imager (GE Amersham Typhoon, Sweden) was used to capture full cross section of hearts. For co-localization experiments, the mice hearts were dissected 24 h post-injection of drugs. Anti-AT1R primary antibody (1:200 dilution) was used as the primary antibody. For fibrosis investigation, the frozen sections were incubated with primary antibodies against α-SMA (1:400 dilution). […]
manufacturer ’s protocol. […] The TUNEL positive cells were observed by the fluorescence microscope (λexc = 488 nm for TUNEL, λexc = 405 […]
Intracellular ROS was quantified with dihydroethidium (DHE). […] Intracellular ROS were detected by the fluorescence microscope (λexc = 532 nm for DHE, λexc = 405 nm for Hoechst 33342). […]

AT1R = target: T1, AT1R (Rattus norvegicus, UniProt P25095); experiment: Fluorescent co-localization with AT1R in NRCMs; type: cell-based; details: OGD-conditioned NRCMs, 50 μM, 2 h, microscopy
T1 construct: NRCMs under OGD conditions expressed high levels of AT1R (red fluorescence); endogenous in cells; host or cells: primary neonatal rat cardiomyocytes (NRCMs) from Sprague-Dawley rats, normoxia or OGD
T1 sequence (P25095 1-359): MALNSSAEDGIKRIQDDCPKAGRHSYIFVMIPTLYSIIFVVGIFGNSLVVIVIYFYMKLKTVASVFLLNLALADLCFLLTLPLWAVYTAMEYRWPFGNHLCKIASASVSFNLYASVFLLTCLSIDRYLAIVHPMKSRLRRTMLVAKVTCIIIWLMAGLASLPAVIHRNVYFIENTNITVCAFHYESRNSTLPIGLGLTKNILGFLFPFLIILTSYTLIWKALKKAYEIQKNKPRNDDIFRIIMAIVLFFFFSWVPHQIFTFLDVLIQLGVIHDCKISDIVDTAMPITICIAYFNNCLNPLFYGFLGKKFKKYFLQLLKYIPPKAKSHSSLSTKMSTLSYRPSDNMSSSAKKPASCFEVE
Description: Next, the cells were blocked by incubating with goat serum for 30 min and incubated with primary antibodies overnight at 4 °C. The primary antibodies used here included anti-AT1R (1:200 dilution), anti-cTNT (1:500 dilution), anti-P65 (1:800 dilution), and anti‐α-SMA (1:400 dilution). The cells were incubated with FITC-labeled Goat Anti-Rabbit IgG (1:200 dilution) or Cy3-labeled Goat Anti-Mouse IgG (1:200 dilution) for 2 h at room temperature. The cells were counterstained with DAPI and imaged using a fluorescence microscope (Leica Dmi8, Germany).
(50 μM), SAA1-7+Tel (50 μM) and NBDAng1-7+Tel (50 μM) for further 2 h. PBS was then used to wash cells for three times and 4% paraformaldehyde was added to fix cells for 20 min at room temperature. After being blocked with goat serum for 30 min, rabbit anti-AT1R primary antibody (1:200 dilution) was added to incubat e wit h NRCMs overnight at 4 ℃. After being washed with PBS for three times, Cy3-labeled Goat Anti-Rabbit IgG (1:200 solut ion) was added and incubated with cells for 2 h at room temperature. Cells were then stained with DAPI. The fluorescence i mages were obtained by the fluorescence microscope (λexc =532 nm for AT1R, λexc = 488 nm for NBD, λexc = 405 nm for DAPI).

[1] = Critical micelle concentration by dynamic light scattering; type: physicochemical; details: gradient concentrations in MilliQ water
Description: The details are given in Supporting Information.
S1.3 Drug Loading and Encapsulation Efficiency
Tel (dissolved in DMSO) was mixed with SAA1-7 (dissolved in PBS) (pH 7.4, 10 mg/mL) at molar ratios of 15%, 30%, 50%, and 70% (n = 3). After preparation, the mixtures were analy zed using LC-MS (LCMS-20AD, Shimadzu) after lyo philization.
(§1) DL and EE were calculated using the following equation. […]
dissolved in PBS (5 mL) and th e pH was adjusted to 7.4. Proteinase K was added at a concentration of 0.138 mg/mL and the reaction m ixtures were incubated at 37 °C for 24 h. Next, 500 μL of the sample was removed at each time point and the rel ease of Tel was analyzed, while the remained SAA1-7 in the sample was analyzed using LC-MS […]
S1.4 Transmission electron microscopy
The SAA1-7 with 50% molar ratio of Tel was incubated at 40 ℃ for 0 min, 30 min, 60 min, and 120 min, respectively. TEM samples in different time points were prepared. […]
were prepared. The sample preparation procedures : 10 µL samples of each were placed on a carbon-coated copper grid and in cubated for 30 seconds to allow the peptide nanostructures to adhere to the substrate, then rinsed twice with ultrapure water. […]
(§2) The CMC values were determined by dynamic light scattering (DLS) and the light scattering intensity was recorded for each concentration. […]

[2] = target: T2, recombinant human MasR (rhMasR) (Homo sapiens, UniProt P04201); experiment: Surface plasmon resonance imaging (SPRi) binding; details: rhMasR immobilized on CM5 chip, analytes 0.001-10 μM in PBS
T2 construct: purchased Abnova H00004142-G01
T2 sequence (P04201 1-325): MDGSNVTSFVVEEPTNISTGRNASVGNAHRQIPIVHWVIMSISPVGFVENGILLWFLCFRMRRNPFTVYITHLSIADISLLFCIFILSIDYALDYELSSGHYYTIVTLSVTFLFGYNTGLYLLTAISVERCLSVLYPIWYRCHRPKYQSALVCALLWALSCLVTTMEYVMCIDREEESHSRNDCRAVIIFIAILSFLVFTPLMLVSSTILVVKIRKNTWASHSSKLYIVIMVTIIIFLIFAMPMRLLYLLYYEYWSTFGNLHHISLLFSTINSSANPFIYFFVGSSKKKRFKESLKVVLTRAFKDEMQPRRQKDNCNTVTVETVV

[3] = TEM of nanofibers (diameter); type: physicochemical; details: SAA1-7 hydrogel, 1.0 wt% in PBS pH 7.4, heat-cooling
From the text: To construct the dual-ligand supramolecular nanofibers, we designed and synthesized a peptide molecule NBD-^DF^DF^DY^DE^DEG-DRVYIHP (SAA1-7, Figure 1A & Figure S1) as a hydrogelator. […] SAA1-7 could self-assemble into a transparent hydrogel in PBS (pH 7.4) at a concentration of 1.0 wt% via a simple heat-cooling process, in which we observed uniform nanofibers with diameters of 7.6 ± 1.8 nm using transmission electron microscopy (TEM) (Figure S2). The drug loading efficiency and the stability of nanocarriers are attributed to the affinity between amphiphilic peptides and hydrophobic molecules. […] We measured the encapsulation efficiency (EE) and drug loading (DL) of TDCNfs. […]
Subsequently, we studied the co-assembly behaviors and the underlying mechanism of TDCNfs. […] We monitored and compared the nanostructures in the process of hydrogelation at different time points by TEM. […]
as §1
dissolved in PBS (5 mL) and th e pH was adjusted to 7.4. […] Next, 500 μL of the sample was removed at each time point and the rel ease of Tel was analyzed, while the remained SAA1-7 in the sample was analyzed using LC-MS […]
as §2

overlapping signals with AT1R in infarct zone compared with Cy5.5TDCNfs group (infarcted heart)	co-localization with AT1R (AT1R)	critical micelle concentration (CMC) [1] [µM]	Kd [2] [µM]	nanofiber diameter (TEM) [3] [nm]	Compound
significantly lower	–	–	–	–	CC[C@H](C)[C@H](NC(=O)[C@H](Cc1ccc(O)cc1)NC(=O)[C@@H](NC(=O)[C@H](CCCNC(=N)N)NC(=O)[C@H](CC(=O)O)NC(=O)CNC(=O)CCCCC[N+]1=C(/C=C/C=C/C=C2/N(C)c3ccc4ccccc4c3C2(C)C)C(C)(C)c2c1ccc1ccccc21)C(C)C)C(=O)N[C@@H](Cc1c[nH]cn1)C(=O)N1CCC[C@H]1C(=O)O [Cy5.5Ang1-7] (X1-GDRVYIHP-OH)
–	slightly overlapped signal	21.95	0.0126	7.6 ± 1.8	CC[C@H](C)[C@H](NC(=O)[C@H](Cc1ccc(O)cc1)NC(=O)[C@@H](NC(=O)[C@H](CCCNC(=N)N)NC(=O)[C@H](CC(=O)O)NC(=O)CNC(=O)[C@@H](CCC(=O)O)NC(=O)[C@@H](CCC(=O)O)NC(=O)[C@@H](Cc1ccc(O)cc1)NC(=O)[C@@H](Cc1ccccc1)NC(=O)[C@@H](Cc1ccccc1)NC(=O)CCNc1ccc([N+](=O)[O-])c2nonc12)C(C)C)C(=O)N[C@@H](Cc1c[nH]cn1)C(=O)N1CCC[C@H]1C(=O)O [SAA1-7, NBD-^DF^DF^DY^DE^DEG-DRVYIHP] ({NBD-βAla}-[dF][dF][dY][dE][dE]GDRVYIHP-OH)
